Key:
[1] = test system: Sp1, Sp3 and Sp4 proteins; assay: Western blot of Sp1, Sp3 and Sp4 protein expression in L3.6pl cells; type: cell-based, human; conditions: 50 μM, 48 hr
Method: Cells were treated with 50 μM non-steroidal anti-inflammatory drugs/COX-1/2 inhibitors for 48 hr and whole cell lysates were analyzed by Western blot analysis. […] Protein band intensities were standardized based on β-tubulin protein as a loading control.
Cells are washed once with phosphate buffered saline PBS and collected by scraping in 200 μL of lysis buffer [50 mM HEPES, 0.5M sodium chloride, 1.5 mM magnesium chloride, 1 mM EGTA, 10% (v/v) glycerol, 1% Triton X-100, 5 μL/ml of Protease Inhibitor Cocktail (Sigma)]. The lysates from the cells are incubated on ice for 1 hr with intermittent vortexing followed by centrifugation at 40,000 g for 10 min at 4° C. Equal amounts of protein (60 μg) from each treatment group are diluted with loading buffer, boiled and loaded onto 10 and 12.5% SDS-polyacrylamide gel. […] Samples are electrophoresed, transferred to membranes, and proteins detected by incubation with polyclonal primary antibodies Sp1, Sp3, Sp4, HDAC, VEGF (a-20), c-Met, surviving, VEGF, cleaved PARP, and β-tubulin (H-235) followed by blotting with appropriate horseradish peroxidase-conjugated secondary antibody as previously described (Abdelrahim et al, 2004). After autoradiography, band intensities are determined by a scanning laser densitometer (Sharp Electronics Corporation, Mahwah, N.J.) using ZERO-D SCANALYTICS software (Scanalytics Corporation, Billerica, Mass.).

[2] = test system: Sp protein binding to GC-rich VEGF promoter oligonucleotide; assay: Gel mobility shift of nuclear extracts from L3.6pl cells with VEGF32P; type: cell-based, human; conditions: nuclear extracts of L3.6pl cells treated with 50 μM for 48 hr
Method: Vascular endothelial growth factor and VEGFR1 oligonucleotides are synthesized and annealed, and 5 pmol aliquots are 5′-end-labeled using T4 kinase and [y-^32P]ATP. After the reaction sample was incubated 20 min on ice, and antibodies against Sp1, Sp3, and Sp4 proteins are added and incubated another 20 min on ice. Protein-DNA complexes are resolved by 5% polyacrylamide gel electrophoresis as previously described (Abdelrahim et al, 2004; Abdelrahim et al, 2005, Abdelrahim et al, submitted 2005).
Panc1 or L3.6pl cells were treated with DMSO, 50 μM tolfenamic acid or 50 μM ampiroxicam for 48 hr. Nuclear extracts from these cells were isolated, incubated with VEGF^32P and analyzed in gel mobility shift assays.
The radiolabeled oligonucleotide contained a GC-rich region (−66 to −47) from the VEGF promoter that binds Sp proteins.

[3] = test system: VEGFR1 mRNA; assay: VEGFR1 mRNA in Panc-1 cells, semi-quantitative RT-PCR; type: cell-based; conditions: 50 μM, 24 h
Method: FIGS. 17A-17D show effects of tolfenamic acid on the VEGFR1 promoter and mRNA expression. Transfection with pVEGFR1-A (FIG. 17A), pVEGFR1-B (FIG. 17B), and pVEGFR1-C (FIG. 17C). Panc-1 cells were transfected with pVEGFR1 constructs, treated with DMSO, 50 μM ampiroxicam, or 50 μM tolfenamic acid, and luciferase activity was determined as described in Materials and Methods. […] Results are shown for a single experiment and similar data was obtained in replicate experiments.

[4] = test system: L3.6pl cells; assay: Cell proliferation assay, L3.6pl cells; type: cell-based, human
Method: FIGS. 7A-7D compares effects of tolfenamic acid and ampiroxicam on pancreatic cancer cell proliferation. […] Panc1, Panc28 and L3.6pl cells are seeded in DMEM/F12 media with 5% FBS and treated the next day with either vehicle (DMSO) or with the indicated compounds' concentrations. Cells are counted at the indicated times using a Z1™ COULTER COUNTER® cell counter. Each experiment is carried out in triplicate and results expressed as means ±SD for each determination.

[5] = test system: SEG-1 esophageal cancer cells; assay: Western blot of Sp and Sp-dependent proteins in SEG-1 esophageal cancer cells; type: cell-based; conditions: SEG-1 cells, 25-100 μM
Method: Cells are washed once with phosphate buffered saline PBS and collected by scraping in 200 μL of lysis buffer [50 mM HEPES, 0.5M sodium chloride, 1.5 mM magnesium chloride, 1 mM EGTA, 10% (v/v) glycerol, 1% Triton X-100, 5 μL/ml of Protease Inhibitor Cocktail (Sigma)]. The lysates from the cells are incubated on ice for 1 hr with intermittent vortexing followed by centrifugation at 40,000 g for 10 min at 4° C. Equal amounts of protein (60 μg) from each treatment group are diluted with loading buffer, boiled and loaded onto 10 and 12.5% SDS-polyacrylamide gel. For vascular endothelial growth factor immunoblots, 100 μg of protein are used. Samples are electrophoresed, transferred to membranes, and proteins detected by incubation with polyclonal primary antibodies Sp1, Sp3, Sp4, HDAC, VEGF (a-20), c-Met, surviving, VEGF, cleaved PARP, and β-tubulin (H-235) followed by blotting with appropriate horseradish peroxidase-conjugated secondary antibody as previously described (Abdelrahim et al, 2004). After autoradiography, band intensities are determined by a scanning laser densitometer (Sharp Electronics Corporation, Mahwah, N.J.) using ZERO-D SCANALYTICS software (Scanalytics Corporation, Billerica, Mass.).

Q: `Cc1c(Cl)cccc1Nc1ccccc1C(=O)O` [tolfenamic acid] was tested. Which “decrease of Sp1, Sp3 and Sp4 proteins” value [1] did it give?
A: greater than 65%

Q: And the “Sp3 and Sp1/Sp4 retarded bands with VEGF32P” value [2]?
A: retarded bands were decreased

Q: What about the “VEGFR1 mRNA levels” value [3] of the same compound?
A: decreased VEGFR1 mRNA levels

Q: And the “potency as inhibitor of pancreatic cell growth relative to ampiroxicam” value [4]?
A: more potent as an inhibitor of pancreatic cell growth than ampiroxicam

Q: And the cell growth ([4]; 25-100 μM, 6 days)?
A: significantly (p<0.05) inhibited cell growth

Q: What about the “apoptosis as shown by PARP cleavage” value [5] of the same compound?
A: induced apoptosis

Q: And the “expression of Sp-dependent proteins VEGF, survivin, and c-Met” value [5]?
A: decreased expression of Sp-dependent proteins vascular endothelial growth factor (VEGF), survivin, and c-Met

Q: And the “protein expression of Sp1, Sp3, and Sp4” value [5]?
A: decreased protein expression of Sp1, Sp3, and Sp4
